Data set [1] in a line: Antiinflammatory activity in rat neonatal brain microglia cells assessed as effect on phorbol-12-myristate-13-acetate-stimulated superoxide release. Format: functional, cell-based.
Data set [2] can be described thus: Antiinflammatory activity in rat neonatal brain microglia cells assessed as effect on phorbol-12-myristate-13-acetate-stimulated thromboxane B2 release. Format: functional, cell-based.
A short description of data set [3]: Toxicity against rat neonatal brain microglia cells assessed as phorbol-12-myristate-13-acetate-stimulated LDH release. Format: cell-based. In general terms: LDH leaks from cells whose membrane has failed.
A further data set relates to Pseudomonas aeruginosa. Put plainly: Antibacterial activity against Pseudomonas aeruginosa ATCC 15442 after 48 hrs by agar dilution method. The data set is classed as functional. The following applies: ATCC 15442, 48 h.
Data set [4] deals with Staphylococcus aureus. Nature of the data set: Antibacterial activity against Staphylococcus aureus ATCC 6535 after 48 hrs by agar dilution method. Format: functional. Particulars: ATCC 6535, 48 h. Background: In agar dilution, organisms are placed on agar that contains the substance at set levels.
The test system of data set [5] is Staphylococcus aureus. Nature of the data set: Antibacterial activity against methicillin-resistant Staphylococcus aureus ATCC 33591 after 48 hrs by agar dilution method. The data set is classed as functional. The following applies: ATCC 33591, 48 h.

The structures appear in SMILES notation. ≈ marks a conversion by molar mass, not a printed value.

In general, IC50 refers to the concentration that inhibits the measured activity by half. Usually MIC stands for the lowest concentration found to suppress growth. A high value points to weaker potency.

Turning to `CC1(C)C(=O)CC[C@]2(C)[C@H]3C(=O)C=C4[C@@H]5C[C@@](C)(C(=O)O)CC[C@]5(C)CC[C@@]4(C)[C@]3(C)CC[C@@H]12`, the results for the concentration for half-maximal inhibition (IC50) in data set [1], in data set [2] and in data set [3] were 6.7 µM, 2.3 µM and more than 10 µM, respectively.

On to `C=C(C)[C@@H]1CC[C@]2(C)[C@H](CC=C3[C@@H]4C[C@](C)(C(=O)O)CC[C@]4(C)CC[C@]32C)[C@@]1(C)CCC(=O)O`, for which the MIC is 6.25 µg/mL (≈ 13.3 µM) with Pseudomonas aeruginosa, more than 3.25 µg/mL against Staphylococcus aureus [4] and more than 6.25 µg/mL against Staphylococcus aureus [5]. In addition, the results for the IC50 in data set [1], in data set [2] and in data set [3] were 1.9 µM, 0.5 µM and more than 1 µM, respectively.

As to `CC1(C)C(=O)CC[C@]2(C)C3=CC=C4[C@@H]5C[C@@](C)(C(=O)O)CC[C@]5(C)CC[C@@]4(C)[C@]3(C)CC[C@@H]12`, the MIC is 6.25 µg/mL (≈ 13.8 µM) with Pseudomonas aeruginosa, more than 50 µg/mL against Staphylococcus aureus [4] and more than 50 µg/mL in the data set on Staphylococcus aureus [5]. Besides, the results for the concentration for half-maximal inhibition (IC50) in data set [1], in data set [2] and in data set [3] were more than 100 µM, more than 100 µM and more than 30 µM, respectively.

Take `CC1(C)C(=O)CC[C@]2(C)[C@H]3[C@H](O)C=C4[C@@H]5C[C@@](C)(C(=O)O)CC[C@]5(C)CC[C@@]4(C)[C@]3(C)CC[C@@H]12`: the values for the minimal inhibitory concentration (MIC) in the data set with Pseudomonas aeruginosa, with Staphylococcus aureus [4] and in the data set on Staphylococcus aureus [5] were more than 6.26 µg/mL, more than 6.25 µg/mL and more than 6.25 µg/mL, respectively. Also, the IC50 is 3.2 µM in data set [1], 3.6 µM in data set [2] and more than 1 µM in data set [3].

`CCO[C@@H]1C=C2[C@@H]3C[C@@](C)(C(=O)O)CC[C@]3(C)CC[C@@]2(C)[C@]2(C)CC[C@H]3C(C)(C)C(=O)CC[C@]3(C)[C@@H]12`: the MIC in the data set on Pseudomonas aeruginosa was 12.5 µg/mL (≈ 25.1 µM); with Staphylococcus aureus [4], more than 12.5 µg/mL; against Staphylococcus aureus [5], 50 µg/mL (≈ 100 µM).

Take `CO[C@@H]1C=C2[C@@H]3C[C@@](C)(C(=O)O)CC[C@]3(C)CC[C@@]2(C)[C@]2(C)CC[C@H]3C(C)(C)C(=O)CC[C@]3(C)[C@@H]12`: the MIC against Pseudomonas aeruginosa is 10 µg/mL (≈ 20.6 µM); with Staphylococcus aureus [4], more than 10 µg/mL; against Staphylococcus aureus [5], more than 10 µg/mL. In addition, the IC50 was 15 µM in data set [1], 5 µM in data set [2] and more than 30 µM in data set [3].

Turning to `C=C(C)[C@@H]1CC[C@]2(C)[C@H](CC=C3[C@@H]4C[C@@](C)(C(=O)O)CC[C@]4(C)CC[C@]32C)[C@@]1(C)CCC(=O)O` [KOETJAPIC ACID], the MIC against Pseudomonas aeruginosa was 6.25 µg/mL (≈ 13.3 µM); in the data set with Staphylococcus aureus [4], more than 6.25 µg/mL; against Staphylococcus aureus [5], 12.5 µg/mL (≈ 26.6 µM).

The values are drawn from ChEMBL document CHEMBL1154575, “Bioactive 12-oleanene triterpene and secotriterpene acids from Maytenus undata” (J Nat Prod, 2000).
